According to PubChem BioAssay (NCI):
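48-hour exposure; five concentrations; linearly interpolated endpoints. At the GI50, growth is halved. At the TGI there is no net growth.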

Experiments:
Assay in all cases: NCI anticancer screen, dose series, 48 h
U251 CNS = tested on: U251 CNS
NCI-H23 lung = tested on: NCI-H23 lung
MOLT-4 leukemia = tested on: MOLT-4 leukemia
SNB-75 CNS = tested on: SNB-75 CNS
UO-31 renal = tested on: UO-31 renal
OVCAR-3 ovarian = tested on: OVCAR-3 ovarian
RPMI-8226 leukemia = tested on: RPMI-8226 leukemia
SF-539 CNS = tested on: SF-539 CNS
A498 renal = tested on: A498 renal
SF-268 CNS = tested on: SF-268 CNS

| SMILES | GI50 (U251 CNS) [µM] | TGI (U251 CNS) [µM] | GI50 (NCI-H23 lung) [µM] | TGI (NCI-H23 lung) [µM] | GI50 (MOLT-4 leukemia) [µM] | TGI (MOLT-4 leukemia) [µM] | GI50 (SNB-75 CNS) [µM] | TGI (SNB-75 CNS) [µM] | GI50 (UO-31 renal) [µM] | TGI (UO-31 renal) [µM] | GI50 (OVCAR-3 ovarian) [µM] | TGI (OVCAR-3 ovarian) [µM] | GI50 (RPMI-8226 leukemia) [µM] | TGI (RPMI-8226 leukemia) [µM] | GI50 (SF-539 CNS) [µM] | TGI (SF-539 CNS) [µM] | GI50 (A498 renal) [µM] | TGI (A498 renal) [µM] | GI50 (SF-268 CNS) [µM] | TGI (SF-268 CNS) [µM] |
| --- | --- | --- | --- | --- | --- | --- | --- | --- | --- | --- | --- | --- | --- | --- | --- | --- | --- | --- | --- | --- |
| CCCCCCNC(=O)Oc1ccc(/C(=C(/C)Cc2ccc(OC)cc2)c2ccc(OCCN(C)C)cc2)cc1 | 3.61 | 7.9 | 5.28 | 10.5 | 5.23 | 11.5 | 3.99 | 8.53 | 3.87 | 8.03 | 4.93 | 9.79 | 0.983 | 2.7 | 5.01 | 9.64 | 5.34 | 9.92 | 5.07 | 10.9 |
| Nc1ccc(C(=O)CC2(O)C(=O)Nc3c(Cl)cc(Cl)cc32)cc1 (configuration not stated) | – | 95.7 | – | > 100 | – | > 100 | – | > 100 | – | > 100 | – | > 100 | – | > 100 | – | > 100 | – | > 100 | – | > 100 |
| COC(=O)[C@]1(C)CCC[C@@]2(C)[C@@H]3C[C@@H]4[C@H]5C[C@@]3(CC[C@@H]21)C[C@@]45C | – | 63.7 | – | 28.2 | – | 33.8 | – | 31.5 | – | 29.4 | – | 32.7 | – | 27.7 | – | 38.7 | – | 34.1 | – | 31.8 |
| Cn1cc(C2=C(c3cn(C)c4cc(N)ccc34)C(=O)NC2=O)c2ccccc21 | 1.41 | 10.2 | 3.72 | 11.8 | 2.26 | > 18.7 | 0.252 | 2.09 | 2.54 | 15.4 | 0.721 | > 12.2 | 2.92 | 11.6 | 0.568 | 2.27 | 0.944 | 7.54 | 3.67 | 13.7 |
| COc1ccc2ccccc2c1CN1CCOCCOCCN(Cc2c(OC)ccc3ccccc23)CCOCCOCC1 | – | > 100 | – | > 100 | – | > 90.1 | – | > 100 | – | > 100 | – | > 100 | – | 73.2 | – | > 68.8 | – | > 100 | – | > 100 |
| CC[C@]1(O)C[C@@H]2CN(CCc3c([nH]c4ccccc34)[C@@](C(=O)OC)(c3cc4c(cc3OC)N(C)[C@H]3[C@@](O)(C(N)=O)[C@H](O)[C@]5(CC)[C@@H]6C[C@@H]6CN6CC[C@]43[C@@H]65)C2)C1 | < 0.00333 | > 33.3 | < 0.00333 | > 33.3 | < 0.00333 | > 33.3 | < 0.00333 | 20.6 | 0.548 | > 33.3 | < 0.00333 | 0.0818 | < 0.00333 | > 28.7 | < 0.00333 | 0.0143 | 0.00466 | 0.243 | 0.00352 | > 33.3 |
| C[C@]12CC[C@@H](OC(=O)N(CCCl)N=O)C[C@@H]1CC[C@@H]1[C@@H]2CC[C@]2(C)C(=O)CC[C@@H]12 | 0.851 | 15.7 | 15.3 | 67.2 | – | > 57.7 | 2.74 | 30.5 | 4.22 | 18.1 | 5.76 | 19.9 | 14.8 | > 50.8 | 0.33 | 13.4 | 1.68 | 4.29 | 0.632 | 18.9 |
| COc1ccc(/C=C\c2cc(OC)c(OC)c(OC)c2)c(NS(=O)(=O)c2ccc(Cl)cc2)c1O | 0.287 | 15.5 | 0.288 | 42.4 | 0.315 | 83.3 | 0.0331 | 17.4 | 0.0739 | 26.4 | 0.0602 | 10.7 | 0.207 | 20.5 | 0.0371 | 10.5 | 0.0229 | 0.422 | 0.38 | 33.9 |
| COc1ccc(NC(=O)n2nc(/C=C\c3ccc(O)c(OC)c3)cc2/C=C\c2ccc(O)c(OC)c2)cc1 | 3.55 | 20.9 | 3.81 | 63.8 | 2.87 | 13.3 | 2.35 | 16.3 | 1.52 | 36.4 | 2.98 | 8.4 | 3.38 | 29.2 | 2.35 | 13.6 | 17.2 | 56.4 | 3.21 | 36.4 |
| CC(=O)c1cc(-c2ccccc2N)n(-c2ccc3c(c2)OCO3)c1C | 0.277 | > 100 | 0.218 | 97.6 | 0.38 | > 100 | 0.255 | > 93.9 | 0.696 | 45.5 | 0.066 | 0.537 | 0.351 | 19.3 | 0.181 | 0.487 | 0.195 | 0.808 | 0.4 | > 100 |
| COc1nc(C)cc2c(=O)n(-c3ccccc3)n(CC(O)CN3CCN(c4ccc(Cl)cc4)CC3)c(=O)c12 (configuration not stated) | 30.6 | > 50 | > 50 | > 50 | > 50 | > 50 | 10.1 | 27.8 | 46.6 | > 50 | 34.3 | > 50 | > 50 | > 50 | 22.7 | > 50 | > 50 | > 50 | 24.8 | > 50 |
| COC(=O)c1ccc2c(c1)C(=O)c1c-2n(CCCN)c(=O)c2cc(OC)c(OC)cc12 | 16 | 32.1 | 17.1 | 33.5 | 1.83 | 4.67 | 16.5 | 32.9 | 21 | > 56.2 | 10.2 | > 56.8 | 5.77 | 12.5 | 17.7 | 34.7 | 17.4 | 36.2 | 18.6 | 42 |
| CCCCN(CCCC)CCc1c(C)cc(C)c(CCN(CCCC)CCCC)c1O | 3.24 | 42.6 | 2.76 | 23.7 | 2.73 | 10.8 | 2.52 | 40.3 | 2.69 | 16.8 | – | – | 2.24 | 7.13 | 3.51 | 28.2 | 2.3 | 7.31 | 3.23 | > 100 |
